Test systems include SR leukemia; RXF 393 renal; 786-0 renal; NCI-H460 lung; T-47D breast; OVCAR-4 ovarian; A498 renal; HOP-62 NSCLC; HT29 colon; K-562 leukemia; UO-31 renal; HL-60(TB) leukemia; SNB-19 CNS; NCI/ADR-RES ovarian; SK-MEL-5 melanoma; SW-620 colon; COLO 205 colon; RPMI-8226 leukemia.
Holding throughout (assay): growth of human tumour cells (NCI), 48 h

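Tested at 5 concentrations; 48 h exposure; 96-well plates; endpoints linearly interpolated, else capped at highest concentration. TGI marks complete inhibition of growth.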

As for `O=C1NC(=Nc2ccccc2)C(=Nc2ccccc2)N1c1ccccc1`, the TGI was 51.1 µM in the assay on SR leukemia; 29.2 µM with RXF 393 renal; 29 µM with 786-0 renal; 30.8 µM with NCI-H460 lung; 33.2 µM in the assay on T-47D breast; 33.1 µM with OVCAR-4 ovarian. For the same compound, the TGI in the assay with A498 renal amounted to 31 µM; in the assay with HOP-62 NSCLC, 32.5 µM; with HT29 colon it was 29.6 µM; in the assay on K-562 leukemia, 72.2 µM; in the assay on UO-31 renal, 30.1 µM; in the assay on HL-60(TB) leukemia, 52.8 µM. In addition, the TGI with SNB-19 CNS came to 31.4 µM; with NCI/ADR-RES ovarian, 30.6 µM; in the assay on SK-MEL-5 melanoma, 29.7 µM; in the assay with SW-620 colon it was 30 µM; in the assay on COLO 205 colon it was 28 µM; in the assay on RPMI-8226 leukemia, 76.8 µM.

In the case of `CC(C)=C[C@@H]1O[C@H](O)[C@@H]([C@H]2CC[C@@]3(C)[C@@H]4CC[C@H]5C(C)(C)C(=O)CC[C@@]56C[C@@]46CC[C@]23C)[C@@H]1O`, the TGI was determined as 25.8 µM in the assay on SR leukemia; 27.8 µM with RXF 393 renal; 27.6 µM in the assay with 786-0 renal; 35.9 µM with NCI-H460 lung; 35.5 µM in the assay on T-47D breast; 35 µM in the assay with OVCAR-4 ovarian. Also, the TGI worked out at 32.8 µM in the assay on A498 renal; 62.2 µM with HOP-62 NSCLC; 24.1 µM in the assay with HT29 colon; 38.4 µM in the assay with K-562 leukemia; 28.6 µM in the assay with UO-31 renal; 30.2 µM in the assay on HL-60(TB) leukemia. Also, the TGI with SNB-19 CNS was 39.1 µM; in the assay with NCI/ADR-RES ovarian it was 35.6 µM; in the assay with SK-MEL-5 melanoma, 41.8 µM; in the assay on SW-620 colon it was 29.7 µM; in the assay with COLO 205 colon it was 43.3 µM; with RPMI-8226 leukemia, 12.7 µM.

Consider `CC(CC[C@@]1(O)OC2C[C@H]3[C@@H]4CC[C@H]5CC(OC6OC(CO)C(OC7OC(CO)C(O)C(OC8OCC(O)C(O)C8O)C7OC7OC(CO)C(O)C(O)C7O)C(O)C6O)[C@H](O)CC5(C)[C@H]4CCC3(C)C2[C@@H]1C)COC1OC(CO)C(O)C(O)C1O` (stereo partly drawn), for which the TGI in the assay with SR leukemia was greater than 50 µM; in the assay on RXF 393 renal, 17.2 µM; with 786-0 renal, 21.8 µM; with NCI-H460 lung, 10.2 µM; with T-47D breast it was 34.6 µM; in the assay with OVCAR-4 ovarian, 36.9 µM. Also, the TGI is greater than 50 µM with A498 renal; 17.9 µM in the assay with HOP-62 NSCLC; 33.4 µM in the assay on HT29 colon; greater than 50 µM with K-562 leukemia; 21.3 µM in the assay on UO-31 renal; 29.1 µM in the assay on HL-60(TB) leukemia. The TGI was greater than 50 µM in the assay on SNB-19 CNS; 31.1 µM with NCI/ADR-RES ovarian; 17.7 µM in the assay with SK-MEL-5 melanoma; greater than 50 µM in the assay with SW-620 colon; 31 µM with COLO 205 colon; greater than 50 µM in the assay on RPMI-8226 leukemia.

Regarding `C[n+]1ccccc1/C1=c2\cc/c([nH]2)=C(\c2cccc[n+]2C)C2=N/C(=C(/c3cccc[n+]3C)C3C=CC(N3)/C(c3cccc[n+]3C)=C3/C=CC1=N3)C=C2`, the TGI in the assay on SR leukemia, with RXF 393 renal, with 786-0 renal, in the assay with NCI-H460 lung, in the assay with T-47D breast and in the assay on OVCAR-4 ovarian was greater than 100 µM in each case. Moreover, the TGI in the assay on A498 renal, in the assay on HOP-62 NSCLC, with HT29 colon, in the assay on K-562 leukemia, with UO-31 renal and with HL-60(TB) leukemia was greater than 100 µM each time. Also, the TGI in the assay on SNB-19 CNS, in the assay on NCI/ADR-RES ovarian, in the assay with SK-MEL-5 melanoma, with SW-620 colon, in the assay on COLO 205 colon and in the assay with RPMI-8226 leukemia was greater than 100 µM each time.

Consider `O=C1NC(=Nc2ccccc2Cl)N/C1=C\c1ccc(Cl)cc1Cl`, for which the TGI with SR leukemia is greater than 100 µM; with RXF 393 renal, 40.1 µM; in the assay with 786-0 renal it was greater than 100 µM; with NCI-H460 lung, greater than 100 µM; with T-47D breast, greater than 100 µM; with OVCAR-4 ovarian, greater than 100 µM. Also, the TGI in the assay with A498 renal is greater than 100 µM; in the assay with HOP-62 NSCLC, greater than 100 µM; in the assay with HT29 colon, greater than 100 µM; with K-562 leukemia, greater than 100 µM; in the assay on UO-31 renal, greater than 100 µM; in the assay on HL-60(TB) leukemia it was 1.84 µM. In addition, the TGI in the assay with SNB-19 CNS, in the assay on NCI/ADR-RES ovarian, in the assay with SK-MEL-5 melanoma, with SW-620 colon, with COLO 205 colon and in the assay on RPMI-8226 leukemia was greater than 100 µM each time.

For the compound `COC(=O)CNC(=O)CCC(C)[C@H]1CCC2C3C(C[C@H](OC(C)=O)[C@@]21C)[C@@]1(C)CCC2(C[C@H]1C[C@H]3OC(C)=O)OOC1(CCCCC1)OO2` (stereo partly drawn), the TGI is 4.21 µM in the assay on SR leukemia; 4.23 µM in the assay on RXF 393 renal; 3.48 µM in the assay with 786-0 renal; 3.63 µM in the assay on NCI-H460 lung; 5.03 µM with T-47D breast; 3.66 µM in the assay on OVCAR-4 ovarian. Besides, the TGI with A498 renal is 34.4 µM; with HOP-62 NSCLC it was 1.73 µM; in the assay with HT29 colon, 7.44 µM; in the assay with K-562 leukemia it was 9.51 µM; with UO-31 renal it was 3.3 µM; with HL-60(TB) leukemia, 5.1 µM. For the same compound, the TGI in the assay with SNB-19 CNS was 17.8 µM; with NCI/ADR-RES ovarian, 4.7 µM; with SK-MEL-5 melanoma it was 8.12 µM; in the assay with SW-620 colon, 5.46 µM; in the assay with COLO 205 colon, 3.89 µM; with RPMI-8226 leukemia, 3.91 µM.

`Cc1cc(C)nc(NS(=O)(=O)c2ccc(NC(=O)c3cc([N+](=O)[O-])cc([N+](=O)[O-])c3)cc2)n1`: the TGI in the assay on SR leukemia was 14.7 µM; with RXF 393 renal it was greater than 100 µM; in the assay on 786-0 renal, greater than 100 µM; with NCI-H460 lung, greater than 100 µM; in the assay with T-47D breast it was greater than 100 µM; in the assay on OVCAR-4 ovarian it was greater than 100 µM. The TGI in the assay on A498 renal, in the assay on HOP-62 NSCLC, with HT29 colon, in the assay with K-562 leukemia, in the assay with UO-31 renal and in the assay with HL-60(TB) leukemia was greater than 100 µM each time. The TGI with SNB-19 CNS is greater than 100 µM; with NCI/ADR-RES ovarian, greater than 100 µM; in the assay on SK-MEL-5 melanoma it was greater than 100 µM; in the assay on SW-620 colon it was greater than 100 µM; in the assay on COLO 205 colon it was 45.7 µM; with RPMI-8226 leukemia, greater than 100 µM.

For the compound `C#C[C@]1(O)CC[C@H]2[C@@H]3CCC4=C/C(=N/OC(=O)c5cccc6c(=O)c7ccccc7[nH]c56)CCC4[C@H]3CC[C@@]21CC` (stereo partly drawn), the TGI is 35.7 µM with SR leukemia; 12.6 µM in the assay on RXF 393 renal; greater than 39.6 µM in the assay on 786-0 renal; greater than 100 µM in the assay on NCI-H460 lung; greater than 75.9 µM in the assay on T-47D breast; greater than 100 µM in the assay with OVCAR-4 ovarian. Further, the TGI in the assay with A498 renal is greater than 100 µM; with HOP-62 NSCLC it was greater than 100 µM; with HT29 colon, greater than 50.7 µM; with K-562 leukemia, greater than 82.3 µM; in the assay on UO-31 renal it was greater than 84.3 µM; in the assay on HL-60(TB) leukemia it was 11.7 µM. Moreover, the TGI in the assay with SNB-19 CNS is greater than 100 µM; in the assay on NCI/ADR-RES ovarian, greater than 100 µM; in the assay with SK-MEL-5 melanoma, greater than 53.1 µM; in the assay with SW-620 colon, greater than 63.5 µM; in the assay with COLO 205 colon it was greater than 79.9 µM; in the assay on RPMI-8226 leukemia, 10.6 µM.

Regarding `COc1cc(S(=O)(=O)Nc2ccc(-c3csc(N4C(=O)C(Cl)C4c4cccs4)n3)cc2)ccc1Cl` (stereo not drawn), the TGI in the assay with SR leukemia was 91.5 µM; with RXF 393 renal, 86.4 µM; in the assay with 786-0 renal, 68.3 µM; in the assay on NCI-H460 lung, greater than 100 µM; with T-47D breast it was greater than 100 µM; in the assay on OVCAR-4 ovarian, 77.5 µM. Further, the TGI with A498 renal, in the assay on HOP-62 NSCLC, in the assay with HT29 colon, in the assay on K-562 leukemia, in the assay on UO-31 renal and with HL-60(TB) leukemia was greater than 100 µM throughout. Further, the TGI with SNB-19 CNS, with NCI/ADR-RES ovarian, in the assay on SK-MEL-5 melanoma, in the assay on SW-620 colon, with COLO 205 colon and in the assay with RPMI-8226 leukemia was greater than 100 µM throughout.

On to `N#Cc1c(-c2ccc([N+](=O)[O-])cc2)cc(-c2ccc(Nc3ccnc4cc(Cl)ccc34)cc2)nc1N`, for which the TGI was 2.48 µM in the assay with SR leukemia; 34.9 µM in the assay on RXF 393 renal; 3.02 µM with 786-0 renal; greater than 73.2 µM with NCI-H460 lung; 11.1 µM in the assay on T-47D breast; 15.2 µM in the assay on OVCAR-4 ovarian. Further, the TGI in the assay with A498 renal was 51.7 µM; in the assay on HOP-62 NSCLC, 29.7 µM; with HT29 colon, 8.86 µM; with K-562 leukemia, greater than 33.1 µM; with UO-31 renal it was 42.8 µM; with HL-60(TB) leukemia, 26 µM. For the same compound, the TGI in the assay on SNB-19 CNS is 47.4 µM; with NCI/ADR-RES ovarian it was 26.8 µM; in the assay on SK-MEL-5 melanoma it was greater than 55.4 µM; with SW-620 colon, greater than 100 µM; in the assay on COLO 205 colon, greater than 66 µM; in the assay on RPMI-8226 leukemia it was 15 µM.

On to `COc1cccc2cc(C(=O)NC34CC5CC(CC(C5)C3)C4)c(=N)oc12`, for which the TGI was greater than 47.4 µM in the assay on SR leukemia; greater than 79.9 µM in the assay on RXF 393 renal; greater than 100 µM with 786-0 renal; greater than 100 µM in the assay on NCI-H460 lung; greater than 74.4 µM in the assay on T-47D breast; greater than 100 µM in the assay with OVCAR-4 ovarian. Further, the TGI in the assay on A498 renal was greater than 100 µM; in the assay with HOP-62 NSCLC, greater than 100 µM; in the assay on HT29 colon, greater than 100 µM; with K-562 leukemia, greater than 100 µM; with UO-31 renal, 7.63 µM; with HL-60(TB) leukemia, 29.6 µM. The TGI in the assay with SNB-19 CNS was greater than 100 µM; in the assay with NCI/ADR-RES ovarian, greater than 100 µM; in the assay on SK-MEL-5 melanoma it was greater than 100 µM; in the assay on SW-620 colon it was greater than 100 µM; in the assay with COLO 205 colon, greater than 100 µM; in the assay on RPMI-8226 leukemia it was greater than 77.9 µM.

(Values after PubChem BioAssay (NCI).)
